Experimental data: patent US8952024B2, “Herbicidal pyrimidone derivatives” (E I du Pont de Nemours and Company, priority 2009, dated 2015)

Legend:
Format in all cases: in vivo
rice (Oryza sativa) = test: Test B flooded paddy test; details: for Plant response rating, Flood, Rice: 250 g ai/ha, flooded paddy test, visual rating on 0 to 100 scale (0 no effect, 100 complete control) after 13 to 15 days; for Plant response rating, Rice: Flood (flooded paddy test), 13 to 15 days; for Rice plant response rating: Flood, 31 g ai/ha, scale 0 to 100 (0 no effect, 100 complete control)
Outline: (§1)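 Flooded-pot test: water raised to 3 cm above soil when treating, compound put in the water, level unchanged thereafter. Plants were at 2 leaves. Readout after 13 to 15 days, visual, relative to controls; 0 signifies no effect and 100 complete control.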

[1] = system: ducksalad (Heteranthera limosa); test: Test B flooded paddy test; details: for Plant response rating, Flood, Ducksalad: 250 g ai/ha, flooded paddy test, visual rating on 0 to 100 scale (0 no effect, 100 complete control) after 13 to 15 days; for Plant response rating, Ducksalad: Flood (flooded paddy test), 13 to 15 days; for Ducksalad plant response rating: Flood, 31 g ai/ha, scale 0 to 100 (0 no effect, 100 complete control)
Outline: as §1

[2] = system: barnyardgrass (Echinochloa crus-galli); test: Test B flooded paddy test; details: for Plant response rating, Flood, Barnyardgrass: 250 g ai/ha, flooded paddy test, visual rating on 0 to 100 scale (0 no effect, 100 complete control) after 13 to 15 days; for Plant response rating, Barnyardgrass: Flood (flooded paddy test), 13 to 15 days; for Barnyardgrass plant response rating: Flood, 31 g ai/ha, scale 0 to 100 (0 no effect, 100 complete control)
Outline: as §1

[3] = system: umbrella sedge (Cyperus difformis); test: Test B flooded paddy test; details: for Plant response rating, Flood, Sedge, Umbrella: 250 g ai/ha, flooded paddy test, visual rating on 0 to 100 scale (0 no effect, 100 complete control) after 13 to 15 days; for Plant response rating, Sedge, Umbrella: Flood (flooded paddy test), 13 to 15 days; for Sedge, Umbrella plant response rating: Flood, 31 g ai/ha, scale 0 to 100 (0 no effect, 100 complete control)
Outline: as §1

[4] = system: morningglory (Ipomoea spp.); test: Test A pre-/postemergence plant response; details: for Morningglory plant response rating: visual injury, 0 to 100 scale (0 no effect, 100 complete control), approx. ten days
Outline: (§2)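 Plants grown from seed in a loam soil and sand mix received test compounds both as a preemergence soil spray and, at the same time, as a postemergence spray at the one- to two-leaf stage. Injury was judged visually against untreated controls roughly ten days later, 0 meaning no effect and 100 complete control.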

[5] = system: pigweed (Amaranthus retroflexus); test: Test A pre-/postemergence plant response; details: for Pigweed plant response rating: visual injury, 0 to 100 scale (0 no effect, 100 complete control), approx. ten days
Outline: as §2

corn (Zea mays) = test: Test A pre-/postemergence plant response; details: for Corn plant response rating: visual injury, 0 to 100 scale (0 no effect, 100 complete control), approx. ten days
Outline: as §2

[6] = system: large crabgrass (Digitaria sanguinalis); test: Test A pre-/postemergence plant response; details: for Crabgrass, Large plant response rating: visual injury, 0 to 100 scale (0 no effect, 100 complete control), approx. ten days
Outline: as §2

[7] = system: velvetleaf (Abutilon theophrasti); test: Test A pre-/postemergence plant response; details: for Velvetleaf plant response rating: visual injury, 0 to 100 scale (0 no effect, 100 complete control), approx. ten days
Outline: as §2

[8] = system: barnyardgrass (Echinochloa crus-galli); test: Test A pre-/postemergence plant response; details: for Barnyardgrass plant response rating: visual injury, 0 to 100 scale (0 no effect, 100 complete control), approx. ten days
Outline: as §2

[9] = system: giant foxtail (Setaria faberii); test: Test A pre-/postemergence plant response; details: for Foxtail, Giant plant response rating: visual injury, 0 to 100 scale (0 no effect, 100 complete control), approx. ten days
Outline: as §2

[10] = system: wheat (Triticum aestivum); test: Test A pre-/postemergence plant response; details: for Wheat plant response rating: visual injury, 0 to 100 scale (0 no effect, 100 complete control), approx. ten days
Outline: as §2

[11] = 62 g ai/ha, scale of 0 to 100 where 0 is no effect and 100 is complete control
[12] = 125 g ai/ha, scale 0 to 100, 0 is no effect, 100 is complete control
[13] = Postemergence, 125 g ai/ha, 0 to 100 scale where 0 is no effect and 100 is complete control
[14] = Preemergence, 125 g ai/ha, 0 to 100 scale, 0 = no effect, 100 = complete control
[15] = Preemergence, 500 g ai/ha, 0 to 100 scale, 0 = no effect, 100 = complete control

O=C1CCCC(O)=C1C(=O)c1cnc(-c2ccccc2)n(C2CCCCCCC2)c1=O [Compound 215]
20: Plant response rating, Pigweed [5, 14] | Plant response rating, Barnyardgrass [8, 15]
100: Plant response rating, Morningglory [4, 13] | Morningglory plant response rating ([4]; Postemergence, 500 g ai/ha) | Pigweed plant response rating ([5]; Postemergence, 500 g ai/ha) | Plant response rating, Velvetleaf [7, 13] | Velvetleaf plant response rating ([7]; Postemergence, 500 g ai/ha) | Barnyardgrass plant response rating ([8]; Postemergence, 500 g ai/ha)
40: Plant response rating, Flood, Barnyardgrass [2] | Plant response rating, Crabgrass, Large [6, 13] | Plant response rating, Foxtail, Giant [9, 13]
30: Plant response rating, Barnyardgrass [2, 12] | Corn plant response rating (corn (Zea mays); Postemergence, 500 g ai/ha) | Plant response rating, Foxtail, Giant [9, 15]
85: Plant response rating, Flood, Ducksalad [1] | Plant response rating, Ducksalad [1, 12]
75: Plant response rating, Ducksalad [1, 11] | Plant response rating, Sedge, Umbrella [3, 12]
15: Plant response rating, Flood, Rice (rice (Oryza sativa))
70: Ducksalad plant response rating [1] | Plant response rating, Morningglory [4, 15] | Crabgrass, Large plant response rating ([6]; Postemergence, 500 g ai/ha) | Plant response rating, Velvetleaf [7, 15]
60: Plant response rating, Crabgrass, Large [6, 15]
0: Plant response rating, Rice (rice (Oryza sativa); [11]) | Plant response rating, Rice (rice (Oryza sativa); [12]) | Rice plant response rating (rice (Oryza sativa)) | Plant response rating, Barnyardgrass [2, 11] | Barnyardgrass plant response rating [2] | Plant response rating, Sedge, Umbrella [3, 11] | Sedge, Umbrella plant response rating [3] | Plant response rating, Morningglory [4, 14] | Plant response rating, Corn (corn (Zea mays); [13]) | Plant response rating, Corn (corn (Zea mays); [14]) | Plant response rating, Corn (corn (Zea mays); [15]) | Plant response rating, Crabgrass, Large [6, 14] | Plant response rating, Velvetleaf [7, 14] | Plant response rating, Barnyardgrass [8, 14] | Plant response rating, Wheat [10, 13] | Wheat plant response rating ([10]; Postemergence, 500 g ai/ha) | Plant response rating, Wheat [10, 14] | Plant response rating, Wheat [10, 15]
10: Plant response rating, Foxtail, Giant [9, 14]
80: Foxtail, Giant plant response rating ([9]; Postemergence, 500 g ai/ha)
90: Plant response rating, Flood, Sedge, Umbrella [3] | Plant response rating, Pigweed [5, 13] | Plant response rating, Pigweed [5, 15] | Plant response rating, Barnyardgrass [8, 13]

CCCn1c(-c2cc(F)cc(F)c2)ncc(C(=O)C2=C(O)CC(C)(C)CC2=O)c1=O [Compound 224]
90: Plant response rating, Barnyardgrass [8, 13] | Barnyardgrass plant response rating ([8]; Postemergence, 500 g ai/ha) | Plant response rating, Barnyardgrass [8, 15]
20: Plant response rating, Corn (corn (Zea mays); [14]) | Plant response rating, Corn (corn (Zea mays); [15]) | Plant response rating, Foxtail, Giant [9, 14]
70: Plant response rating, Pigweed [5, 14] | Plant response rating, Crabgrass, Large [6, 13] | Plant response rating, Crabgrass, Large [6, 14] | Plant response rating, Foxtail, Giant [9, 13] | Plant response rating, Foxtail, Giant [9, 15]
0: Plant response rating, Rice (rice (Oryza sativa); [11]) | Plant response rating, Rice (rice (Oryza sativa); [12]) | Rice plant response rating (rice (Oryza sativa)) | Plant response rating, Ducksalad [1, 11] | Plant response rating, Ducksalad [1, 12] | Ducksalad plant response rating [1] | Plant response rating, Barnyardgrass [2, 11] | Plant response rating, Barnyardgrass [2, 12] | Barnyardgrass plant response rating [2] | Plant response rating, Sedge, Umbrella [3, 11] | Plant response rating, Sedge, Umbrella [3, 12] | Sedge, Umbrella plant response rating [3] | Plant response rating, Barnyardgrass [8, 14] | Plant response rating, Wheat [10, 13] | Plant response rating, Wheat [10, 14]
60: Plant response rating, Flood, Rice (rice (Oryza sativa)) | Wheat plant response rating ([10]; Postemergence, 500 g ai/ha)
80: Plant response rating, Velvetleaf [7, 15]
10: Plant response rating, Corn (corn (Zea mays); [13])
50: Corn plant response rating (corn (Zea mays); Postemergence, 500 g ai/ha) | Plant response rating, Velvetleaf [7, 14]
30: Plant response rating, Flood, Barnyardgrass [2] | Plant response rating, Morningglory [4, 15] | Plant response rating, Wheat [10, 15]
75: Plant response rating, Flood, Ducksalad [1] | Plant response rating, Flood, Sedge, Umbrella [3]
100: Plant response rating, Morningglory [4, 13] | Morningglory plant response rating ([4]; Postemergence, 500 g ai/ha) | Plant response rating, Pigweed [5, 13] | Pigweed plant response rating ([5]; Postemergence, 500 g ai/ha) | Plant response rating, Pigweed [5, 15] | Crabgrass, Large plant response rating ([6]; Postemergence, 500 g ai/ha) | Plant response rating, Crabgrass, Large [6, 15] | Plant response rating, Velvetleaf [7, 13] | Velvetleaf plant response rating ([7]; Postemergence, 500 g ai/ha) | Foxtail, Giant plant response rating ([9]; Postemergence, 500 g ai/ha)

CCCn1c(-c2ccco2)ncc(C(=O)C2=C(O)C3CCC(C3)C2=O)c1=O (centres unmarked) [Compound 230]
20: Plant response rating, Rice (rice (Oryza sativa); [11]) | Plant response rating, Barnyardgrass [2, 12] | Plant response rating, Morningglory [4, 15] | Corn plant response rating (corn (Zea mays); Postemergence, 500 g ai/ha)
80: Plant response rating, Pigweed [5, 13] | Plant response rating, Pigweed [5, 15] | Plant response rating, Crabgrass, Large [6, 13] | Plant response rating, Velvetleaf [7, 15] | Plant response rating, Barnyardgrass [8, 15]
100: Plant response rating, Velvetleaf [7, 13] | Velvetleaf plant response rating ([7]; Postemergence, 500 g ai/ha)
75: Plant response rating, Flood, Sedge, Umbrella [3]
10: Plant response rating, Barnyardgrass [8, 14]
50: Foxtail, Giant plant response rating ([9]; Postemergence, 500 g ai/ha) | Plant response rating, Foxtail, Giant [9, 15]
0: Rice plant response rating (rice (Oryza sativa)) | Plant response rating, Flood, Ducksalad [1] | Plant response rating, Ducksalad [1, 11] | Plant response rating, Ducksalad [1, 12] | Ducksalad plant response rating [1] | Plant response rating, Barnyardgrass [2, 11] | Barnyardgrass plant response rating [2] | Sedge, Umbrella plant response rating [3] | Plant response rating, Morningglory [4, 14] | Plant response rating, Corn (corn (Zea mays); [13]) | Plant response rating, Corn (corn (Zea mays); [14]) | Plant response rating, Corn (corn (Zea mays); [15]) | Plant response rating, Wheat [10, 13] | Wheat plant response rating ([10]; Postemergence, 500 g ai/ha) | Plant response rating, Wheat [10, 14] | Plant response rating, Wheat [10, 15]
70: Plant response rating, Morningglory [4, 13] | Plant response rating, Barnyardgrass [8, 13]
30: Plant response rating, Rice (rice (Oryza sativa); [12]) | Plant response rating, Sedge, Umbrella [3, 11] | Plant response rating, Crabgrass, Large [6, 14] | Plant response rating, Foxtail, Giant [9, 13]
90: Morningglory plant response rating ([4]; Postemergence, 500 g ai/ha) | Pigweed plant response rating ([5]; Postemergence, 500 g ai/ha) | Crabgrass, Large plant response rating ([6]; Postemergence, 500 g ai/ha) | Plant response rating, Crabgrass, Large [6, 15] | Barnyardgrass plant response rating ([8]; Postemergence, 500 g ai/ha)
45: Plant response rating, Flood, Rice (rice (Oryza sativa))
40: Plant response rating, Flood, Barnyardgrass [2] | Plant response rating, Sedge, Umbrella [3, 12] | Plant response rating, Foxtail, Giant [9, 14]
60: Plant response rating, Velvetleaf [7, 14]

CCCCn1c(-c2cccc(C)c2)ncc(C(=O)C2=C(O)C3CCC(C3)C2=O)c1=O (centres unmarked) [Compound 232]
85: Plant response rating, Flood, Ducksalad [1] | Plant response rating, Ducksalad [1, 11]
20: Plant response rating, Crabgrass, Large [6, 13] | Plant response rating, Wheat [10, 13]
10: Plant response rating, Corn (corn (Zea mays); [13]) | Plant response rating, Crabgrass, Large [6, 14]
40: Plant response rating, Morningglory [4, 15] | Plant response rating, Crabgrass, Large [6, 15]
70: Plant response rating, Pigweed [5, 13] | Plant response rating, Velvetleaf [7, 13] | Plant response rating, Foxtail, Giant [9, 15]
30: Plant response rating, Barnyardgrass [2, 11] | Plant response rating, Wheat [10, 15]
90: Pigweed plant response rating ([5]; Postemergence, 500 g ai/ha) | Plant response rating, Pigweed [5, 15] | Barnyardgrass plant response rating ([8]; Postemergence, 500 g ai/ha) | Foxtail, Giant plant response rating ([9]; Postemergence, 500 g ai/ha)
60: Corn plant response rating (corn (Zea mays); Postemergence, 500 g ai/ha) | Crabgrass, Large plant response rating ([6]; Postemergence, 500 g ai/ha) | Plant response rating, Velvetleaf [7, 15] | Plant response rating, Barnyardgrass [8, 13] | Plant response rating, Foxtail, Giant [9, 13]
100: Plant response rating, Morningglory [4, 13] | Morningglory plant response rating ([4]; Postemergence, 500 g ai/ha)
0: Plant response rating, Flood, Rice (rice (Oryza sativa)) | Plant response rating, Rice (rice (Oryza sativa); [11]) | Plant response rating, Morningglory [4, 14] | Plant response rating, Pigweed [5, 14] | Plant response rating, Corn (corn (Zea mays); [14]) | Plant response rating, Corn (corn (Zea mays); [15]) | Plant response rating, Velvetleaf [7, 14] | Plant response rating, Barnyardgrass [8, 14] | Plant response rating, Foxtail, Giant [9, 14] | Plant response rating, Wheat [10, 14]
80: Plant response rating, Flood, Sedge, Umbrella [3] | Plant response rating, Sedge, Umbrella [3, 11] | Velvetleaf plant response rating ([7]; Postemergence, 500 g ai/ha)
50: Plant response rating, Flood, Barnyardgrass [2] | Plant response rating, Barnyardgrass [8, 15] | Wheat plant response rating ([10]; Postemergence, 500 g ai/ha)
